Consider 33 molecules from patent US7718671B2, “Substituted arylthiourea derivatives useful as inhibitors of viral replication” (Achillion Pharmaceuticals, Inc., priority 2003, dated 2010).

Where only a bound is given, the exact number is not on record here.

In the test the test system is Hepatitis C replicon. In words: HCV replicon assay (NPT level by captured ELISA in replicon-containing cells). It is filed as cell-based. The conditions noted are these: Hepatitis C virus, 72 h; Huh-7 HCV replicon-containing cells, three days incubation. How it is done: The compounds claimed herein were tested for the ability to inhibit viral replication of the Hepatitis C replicon in cultured cells in which the HCV replicon construct has been incorporated. The HCV replicon system was described by Bartenschlager, et. al (Science, 285, pp. 110-113 (1999)). The replicon system is predictive of in vivo anti-HCV activity; compounds that are active in humans uniformly evidence activity in the replicon assay.
HCV replicon-containing cells are treated with different concentrations of interferon alpha, a known inhibitor of HCV replication, as a positive control and with different concentrations of the test compound. The replicon assay system includes Neomycin Phosphotransferase (NPT) as a component of the replicon itself in order to detect the transcription of replicon gene products in the host cell. Cells in which the HCV is actively replicating have high levels of NPT; the level of NPT is proportional to HCV replication. […] The NPT level of each sample is measured using a captured ELISA.
A protocol for testing compounds for the ability to inhibit viral replication of the Hepatitis C replicon cultured cells in which the replicon construct has been incorporated, follows.
9A. HCV Replicon and Replicon Expression
The HCV genome consists of a single ORF that encodes a 3000 amino acid polyprotein. The ORF is flanked on the 5′ side by an untranslated region that serves as an internal ribosome entry site (IRES) and at the 3′ side by a highly conserved sequence necessary for viral replication (3′-NTR). The structural proteins, necessary for viral infection, are located near the 5′ end of the ORF. The non-structural proteins, designated NS2 to NS5B comprise the remainder of the ORF.
The HCV replicon contains, 5′-3′, the HCV-IRES, the neomycin phosphotransferase (neo) gene, the IRES of encephalomyocarditis virus, which directs translation of HCV sequences NS3 to NS5B, and the 3′-NTR. The sequence of the HCV replicon has been deposited in GenBank (Accession no. AJ242652).
The replicon is transfected into Huh-7 cells using standard methods such as electroporation.
The equipment and materials include, but are not limited to, Huh-7 HCV replicon-containing cells, maintenance media (DMEM (Dulbecco's modified Eagle media) supplemented with 10% FBS, L-glutamine, non-essential amino acids, penicillin (100 units/ml), streptomycin (100 micrograms/ml), and 500 micrograms/ml of Geneticin G418), screening media (DMEM supplemented with 10% FBS, L-glutamine, and non-essential amino acid, penicillin (100 units/ml) and streptomycin (100 micrograms/ml)), 96 well tissue culture plates (flat bottom), 96 well plates (U bottom for drug dilution), Interferon alpha for positive control, fixation reagent (such as methanol: acetone), primary antibody (rabbit anti-NPTII), secondary antibody: Eu—N1l, and enhancement solution.
HCV replicon-containing cells support high levels of viral RNA replicon replication when their density is suitable. Over confluency will cause a decrease of viral RNA replication. Therefore, cells must be kept growing in log phase in the presence of 500 micrograms/ml of G418. Generally, cells should be passed twice a week at 1: 4-6 dilution. Cell maintenance is conducted as follows:
HCV replicon-containing cells are examined under a microscope to ensure that cells growing well. Cells are rinsed once with PBS and 2 ml trypsin is added. The cell/trypsin mixture is incubated at 37° C. in a CO2 incubator for 3-5 minutes. After incubation 10 ml of complete media is added to stop the trypsinization reaction. Cells are blown gently, put into a 15 ml tube, and spun at 1200 rpm for 4 minutes. The trypsin/medium solution is removed. Medium (5 ml) is added and the cells are mixed carefully. The cells are counted.
The cells are then seeded onto 96-well plates at a density of 6000-7500 cells/100 ul/well (6-7.5×10^5 cells/10 ml/plate). The plates are then incubated at 37° C. in a 5% CO2 incubator. […]
Background: In antiviral work, replicon cells carry a viral genome segment that copies itself.
As for `NC(=S)Nc1cccc(Oc2ccccc2)c1` [Compound 3, 1-(3-Phenoxy-phenyl)-thiourea], the EC50 (as a rule, the concentration needed to bring the measured effect to its halfway point) was less than 1000 nM. `NC(=S)Nc1cccc(Cc2ccccc2)c1` [Compound 5, 1-(3-Benzyl-phenyl)-thiourea] yielded an EC50 of less than 1000 nM. Regarding `CCCCCOc1ccc(NC(N)=S)cc1` [Compound 6, 1-(4-Pentyloxy-phenyl)-thiourea], the EC50 was less than 1000 nM. The same measure for `CCCCCc1ccc(NC(N)=S)cc1` [Compound 7, 1-(4-Pentyl-phenyl)-thiourea]: less than 1000 nM; for `CCCCCOc1ccc(NC(N)=S)cc1F` [Compound 12, 1-(3-Fluoro-(4-Pentyloxy)-phenyl)-thiourea]: less than 1000 nM. The same measure for `NC(=S)Nc1cccc(OC2Cc3ccccc3C2)c1` [Compound 13, 1-(3-(indan-2-yloxy)phenyl)thiourea]: less than 1000 nM; for `NC(=S)Nc1cccc(OCc2ccc(F)c(F)c2)c1` [Compound 14, 1-(3-(3,4-difluorobenzyloxy)phenyl)thiourea]: less than 1000 nM. `NC(=S)Nc1cccc(OCc2ccc(-c3ccccc3)cc2)c1` [Compound 15, 1-(3-(4-phenylbenzyloxy)phenyl)thiourea]: the EC50 is less than 1000 nM. As for `C[C@H](Oc1cccc(NC(N)=S)c1)c1ccccc1` [Compound 16, 1-(3-((S)-1-phenylethoxy)phenyl)thiourea], the EC50 was less than 1000 nM. As for `NC(=S)Nc1ccc2c(c1)OC(c1ccccc1)O2` (stereo not drawn) [Compound 19, 1-(2-phenylbenzo[d]-[1,3]dioxol-6-yl)thiourea], the figure is less than 1000 nM. As for `C[C@@H](Oc1cccc(NC(N)=S)c1)c1ccccc1` [Compound 20, 1-(3-((R)-1-phenylethoxy)phenyl)thiourea], the figure is less than 1000 nM. In the case of `NC(=S)Nc1cccc(OCCc2ccccc2)c1` [Compound 21, 1-(3-(phenethyloxy)phenyl)thiourea], the EC50 was less than 1000 nM. As for `NC(=S)Nc1cccc(-c2ccccc2)c1` [Compound 22, 1-(3-(phenyl)phenyl)thiourea], the figure is less than 1000 nM; as for `NC(=S)Nc1ccc(-c2ccccc2)cc1` [Compound 23, 1-(4-(phenyl)phenyl)thiourea], less than 1000 nM. The same measure for `NC(=S)Nc1ccc(N2CCc3ccccc3C2)c(F)c1` [Compound 24, 1-(3-fluoro-4-(3,4-dihydro-isoquinolin-2(1H)-yl)phenyl)thiourea]: less than 1000 nM; for `NC(=S)Nc1ccc(N2CCc3ccccc3C2)cc1` [Compound 25, 1-(4-(3,4-dihydro-isoquinolin-2(1H)-yl)phenyl)thiourea]: less than 1000 nM; for `NC(=S)Nc1ccc(N2CCC3CCCCC3C2)cc1` (stereo not drawn) [Compound 26, 1-(4-(octahydroisoquinolin-2(1H)-yl)phenyl)thiourea]: less than 1000 nM.

With `NC(=S)Nc1ccc(OCc2ccccc2)cc1` [Compound 28, 1-(4-(benzyloxy)phenyl)thiourea], the EC50 is less than 1000 nM. In turn, `CCCCCC[C@H]1CC[C@H](c2ccc(NC(N)=S)cc2)CC1` [Compound 29, 1-(4-((1s,4r)-4-hexylcyclohexyl)phenyl)thiourea] came in with an EC50 of less than 1000 nM. Consider `CCCCCCC12CCC(c3ccc(NC(N)=S)cc3)(CC1)CC2` [Compound 30, 1-(4-(4-hexylbicyclo[2.2.2]octan-1-yl)phenyl)thiourea], for which the EC50 is less than 1000 nM. The same measure for `CCC[C@H]1CC[C@H](c2ccc(NC(N)=S)cc2)CC1` [Compound 31, 1-(4-((1s,4r)-4-propylcyclohexyl)phenyl)thiourea]: less than 1000 nM; for `NC(=S)Nc1ccc(N2CCCCC2)c(C(F)(F)F)c1` [Compound 32, 1-(3-(trifluoromethyl)-4-(piperidin-1-yl)phenyl)thiourea]: less than 1000 nM. In the case of `CCCCC#Cc1ccc(NC(N)=S)cc1` [Compound 33, 1-(4-(hex-1-ynyl)phenyl)thiourea], the EC50 is less than 1000 nM.

`COc1cccc(Cc2cccc(NC(N)=S)c2)c1` [Compound 35, 1-(3-(3-methoxybenzyl)phenyl) thiourea] came in with an EC50 of less than 1000 nM. The same measure for `CCCCCCCOc1ccc(NC(N)=S)cc1C(F)(F)F` [Compound 39, 1-(4-(heptyloxy)-3-(trifluoromethyl)phenyl)thiourea]: less than 1000 nM; for `Cc1cc(NC(N)=S)ccc1N1CCCCC1` [Compound 51, 1-(3-(methyl)-4-(piperidin-1-yl)phenyl)thiourea]: less than 1000 nM; for `NC(=S)Nc1cccc(NCC2CCCCC2)c1` [Compound 52, 1-(3-(cyclohexylmethylamino)phenyl)thiourea]: less than 1000 nM. `NC(=S)Nc1cccc(OCc2cccc(C(F)(F)F)c2)c1` [Compound 53, 1-(3-(3-(trifluoromethyl)benzyloxy)phenyl)thiourea] came in with an EC50 of less than 1000 nM.

With `NC(=S)Nc1ccc(N2CCC(c3ccccc3)CC2)c(F)c1` [Compound 54, 1-(3-fluoro-4-(4-phenylpiperidin-1-yl)phenyl)thiourea], the EC50 is less than 1000 nM. The same measure for `NC(=S)NCc1ccc(Oc2ccccc2)cc1` [Compound 55, 1-(4-phenoxybenzyl)thiourea]: less than 1000 nM; for `NC(=S)NCc1cccc(-c2ccccc2)c1` [Compound 56, 1-(3-phenylbenzyl)thiourea]: less than 1000 nM; for `NC(=S)NCc1ccc(-c2ccccc2)cc1` [Compound 57, 1-(4-phenylbenzyl)thiourea]: less than 1000 nM. In the case of `CCCCc1ccc(CNC(N)=S)cc1` [Compound 59, 1-(4-butylbenzyl)thiourea], the EC50 was less than 1000 nM.
